Results on two substances are retold here after patent US12458587B2, “Hypoallergenic composition for skin regeneration or skin soothing, containing culture product or extract of Aureobasidium pullulans strain” (AMOREPACIFIC CORPORATION, priority 2018, dated 2025).

For one data set, the system named is keratinocytes (HaCaT). Briefly: Scratch wound healing on keratinocyte monolayer (skin-regenerating effect). Format: cell-based, human. To be noted: relative to scratched area as 100%, 12 ppm (positive control 10% FBS), n=4. The protocol: A linear scratch wound was made on a monolayer of keratinocytes (HaCaT). The HaCaT cells were cultured using Dulbecco's modified Eagle's medium (DMEM, Lonza, USA) containing 10% fetal bovine serum (FBS, GIBCO, USA) in a 5% CO2 incubator at 37° C. Immediately after the application of a scratch, the medium was replaced with a fresh medium containing the sample to be tested and the effect of the test sample on skin regeneration was investigated. The regeneration of the cells on the scratched area was imaged with a time-lapse microscope for 36 hours with 30-minute intervals and wound healing area (%) was compared relative the scratched area (as 100%) (n=4 per group).

A further data set concerns rabbit eye. Particulars: 5%; cited from earlier work.

Regarding Madecassoside, in the data set on keratinocytes (HaCaT), the “Wound healing area (%) 12 hours later” value was determined as 33.56%, the “Wound healing area (%) 24 hours later” value was determined as 54.56%, the “Wound healing area (%) 36 hours later” value was 62.48% and the “Wound healing area (%) Immediately after scratching” value came to 0%.
Take “sodium magnesium lauryl-myristyl-6-ethoxy-sulfate [Texapon Asv®]”: the “eye irritation in the Draize rabbit eye test” value in the data set with rabbit eye is “moderate irritation”.
